Test results reported in US12414972B2 (University of South Florida, priority 2021, dated 2025).

Experiments:
Caco-2 cell monolayers = experiment: Transepithelial electric resistance (TEER) assay in Caco-2 cell monolayers; format: cell-based, Human; conditions: ethanolamine treatment, up to 8 hrs
Experimental: Transepithelial electric resistance (TEER) assay in Caco-2 cell monolayers. Human intestinal epithelial Caco-2 cells (American Type Culture Collection) were seeded on apical chamber made of polyester membrane filters with 0.4 μm pore size of 12-well transwell plates (Costar) at a density of 3×10^5/well. The culture medium from both apical and basolateral compartment were changed every two days. The cells were allowed to fully differentiate for 21 days; and fully differentiated cells were challenged with FCM and metabolites for next 8 hours with continuous measuring of TEER values, using an EVOM2 Epithelial Voltometer (WPI) according to the manufacturer's instruction. The blank inert resistance value (the insert with only culture media) was subtracted from the measured resistance value of each sample and final resistance in ohm×cm2 was calculated by multiplying the sample resistance by the area of the membrane.

enteroids = experiment: Ethanolamine treatment of enteroids, expression analyses; format: cell-based, mouse
Experimental: Enteroids development and treatments. To develop mouse enteroids, entire small intestine was collected from mice and flushed with pre-cooled Dulbecco's phosphate buffered saline (DPBS). The lengthwise cut-opened ileum was washed with cooled PBS and fragmented into 2 mm small pieces, then transferred to a 50-ml conical flask containing cleaned pre-cooled PBS. Tissue fragments were incubated in the 25 ml of pre-warmed Trypsin (Gibco) on a rocking platform for 15 minutes. After removing the trypsin, tissue pieces were washed with 10 ml pre-cold PBS with 0.1% bovine serum albumin and filtered in a 50 ml conical tube through a 70 μm cell strainer (Falcon). These pieces were then centrifuged at 290×g for 5 min at 4° C., and the intestinal crypt-containing pallets were suspended in the 10 mL cold DMEM: F-12 (Gibco) and centrifuged at 500×g for 10 minutes followed by resuspending in 150 μL IntestiCult Organoid Growth Medium (StemCell) with […] gentamicin (Gibco). The Matrigel Matrix (Corning) was added to the suspension and the mixture of 50 μL was used to form a dome at the center of a prewarmed 24-well culture plate and incubated at 37° C. and 5% CO2 for 30 minutes to allow the Matrigel to set. To maintain the cultures, the IntestiCult Organoid Growth Medium was changed three times/week, and images were captured by from day 1 to 12. […] The organoids were harvested after 2 days of treatment(s) for miRNA, mRNA, and protein analyses. Experiments were repeated three times.
(§1) RNA isolation and gene expression analyses.
(§2) miRNA profiling and expression analyses.

miR101a-3p promoter = experiment: Promoter luciferase assay in Caco-2 cells; format: cell-based, Human
Experimental: Promoter luciferase assay. Caco-2 cells were seeded onto a 96-well plate at a density of 2×10^4 cells/well and transfected with miR101a-3p promoter pMK-RQ (KanR) reporter vector of 4 different nucleotide sequence (−1 to −500, −1 to −1000, −1 to −1500 and −1 to −2000) from its TSS (Transcription start site) and pMK-RQ (control vector using Lipofectamine 3000 transfection kit (Invitrogen). The TSS of miR101a-3p is located at position: chr1 65067704 (genome version hg38) as reported earlier. (Huang et al., 2017). The cells were collected at various time point (0, 1, 3, 5, 7 and 10 hrs) after transfection. The expression level of the firefly luciferase reporter gene was measured using Pierce Firefly Luciferase Glow Assay Kit.

Caco2 cells = experiment: Ethanolamine treatment of Caco2 cells, expression analyses; format: cell-based, Human
Description: as §1, §2

mice gut = experiment: Oral administration of ethanolamine in mice; format: in vivo
Description: as §1, §2

[1] = among top 6 selected metabolites
[2] = oral, 100 mg/kg body weight, one dose, vs non-treated controls

Structure (SMILES): NCCO [ethanolamine]
- TEER in the monolayers of Caco2 cells (Caco-2 cell monolayers): reduced
- expression of Tjp1 mRNA in the enteroids (enteroids; [1]): most dramatically reduced
- expression of Arid3a in the enteroids (enteroids; ethanolamine treatment): significantly increased
- expression of miR101a-3p in enteroids (enteroids; ethanolamine treatment): significantly increased
- miR101a-3p promoter activity (miR101a-3p promoter; vector carrying −1 to 500 bp fragment): no change
- miR101a-3p promoter activity (miR101a-3p promoter; vector carrying −1 to 1500 bp fragment): significantly increased
- miR101a-3p promoter activity (miR101a-3p promoter; vector carrying −1 to −1000 bp fragment): significantly increased
- miR101a-3p promoter luciferase activity (miR101a-3p promoter; vector with −1 to −2000 bp of TSS vs empty vector): increased
- expression of inflammatory markers like IL-1, IL-6, and TNF-α (Caco2 cells; FIG. 12C, Caco2 culture experiments): significantly reduced
- expression of Tjp1 mRNA in the Caco2 cells (Caco2 cells; [1]): most dramatically reduced
- expression of miR101a-3p in Caco2 cells (Caco2 cells; ethanolamine treatment): significantly increased
- expression (Arid3a) in Caco2 cells (Caco2 cells; ethanolamine treatment vs controls, FIG. 5M): significantly increased
- expression of miR101a-3p in the colon of mice (mice gut; ethanolamine treatment): significantly increased
- expression of miR101a-3p in the ileum of mice (mice gut; ethanolamine treatment): significantly increased
- expression of inflammatory markers (IL-1 β, IL-6 and TNF α) in the intestine (ileum) (mice gut; ethanolamine treatment in mice vs controls): significantly increased
- expression (Arid3a) in mouse intestine (mice gut; ethanolamine treatment vs controls, FIG. 5N): significantly increased
- leaky gut (FITC-dextran assay) (mice gut; oral, 100 mg/kg body weight, one dose, mice): significantly increased
- expression of (Tjp1) mRNA in the colon (mice gut; [2]): significantly reduced
- expression of (Tjp1) mRNA in the ileum (mice gut; [2]): significantly reduced
- expression of (Tjp1) protein in the ileum (mice gut; [2]): significantly reduced
